Assay results from US10870647B2, “Imidazopyridine derivative, method for preparing same, and pharmaceutical composition containing same as active ingredient for preventing or treating cancer” (DAEGU-GYEONGBUK MEDICAL INNOVATION FOUNDATION, priority 2016, dated 2020).

Assays:
[1] = target: T1, scanMAX Kinase assay panel (Homo sapiens, UniProt O15146); experiment: Kinase selectivity, scanMAX Kinase assay panel (DiscoverX), % control at 1 uM; format: binding; conditions: MUSK; 1 uM; read-out: Percent Control (%)
T1 construct: purchased DiscoverX
T1 sequence (O15146 24-869): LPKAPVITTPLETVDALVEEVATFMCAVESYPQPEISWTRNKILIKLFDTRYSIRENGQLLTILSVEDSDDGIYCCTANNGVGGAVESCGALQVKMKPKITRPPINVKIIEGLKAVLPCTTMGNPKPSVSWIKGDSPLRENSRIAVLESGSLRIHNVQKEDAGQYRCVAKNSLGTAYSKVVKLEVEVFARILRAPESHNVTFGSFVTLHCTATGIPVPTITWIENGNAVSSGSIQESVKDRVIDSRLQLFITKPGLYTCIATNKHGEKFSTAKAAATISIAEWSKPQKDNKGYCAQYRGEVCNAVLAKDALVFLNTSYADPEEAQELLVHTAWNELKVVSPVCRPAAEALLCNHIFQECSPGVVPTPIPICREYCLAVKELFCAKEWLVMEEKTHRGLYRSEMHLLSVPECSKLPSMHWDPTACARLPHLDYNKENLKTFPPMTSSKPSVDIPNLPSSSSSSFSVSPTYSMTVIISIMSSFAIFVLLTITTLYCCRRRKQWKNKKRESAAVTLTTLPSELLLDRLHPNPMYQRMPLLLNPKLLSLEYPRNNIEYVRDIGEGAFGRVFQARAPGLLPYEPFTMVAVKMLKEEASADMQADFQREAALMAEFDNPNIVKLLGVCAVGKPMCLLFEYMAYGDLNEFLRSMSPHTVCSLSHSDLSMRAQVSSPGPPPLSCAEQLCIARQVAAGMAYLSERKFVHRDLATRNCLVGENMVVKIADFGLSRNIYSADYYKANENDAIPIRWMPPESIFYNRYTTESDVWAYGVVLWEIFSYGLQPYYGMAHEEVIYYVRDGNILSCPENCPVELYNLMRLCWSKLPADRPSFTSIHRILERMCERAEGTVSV
Procedure, shortened: (§1)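 Each kinase was first exposed to the test compound at 1 uM in DMSO. Signal was then normalised to positive and negative controls to give % control. Finally, any enzyme showing <35% control was judged inhibited.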

[2] = target: T2, scanMAX Kinase assay panel (Homo sapiens, UniProt Q15139); experiment: as above; format: binding; conditions: PRKD1; 1 uM; read-out: Percent Control (%)
T2 construct: purchased DiscoverX
T2 sequence (Q15139 1-912): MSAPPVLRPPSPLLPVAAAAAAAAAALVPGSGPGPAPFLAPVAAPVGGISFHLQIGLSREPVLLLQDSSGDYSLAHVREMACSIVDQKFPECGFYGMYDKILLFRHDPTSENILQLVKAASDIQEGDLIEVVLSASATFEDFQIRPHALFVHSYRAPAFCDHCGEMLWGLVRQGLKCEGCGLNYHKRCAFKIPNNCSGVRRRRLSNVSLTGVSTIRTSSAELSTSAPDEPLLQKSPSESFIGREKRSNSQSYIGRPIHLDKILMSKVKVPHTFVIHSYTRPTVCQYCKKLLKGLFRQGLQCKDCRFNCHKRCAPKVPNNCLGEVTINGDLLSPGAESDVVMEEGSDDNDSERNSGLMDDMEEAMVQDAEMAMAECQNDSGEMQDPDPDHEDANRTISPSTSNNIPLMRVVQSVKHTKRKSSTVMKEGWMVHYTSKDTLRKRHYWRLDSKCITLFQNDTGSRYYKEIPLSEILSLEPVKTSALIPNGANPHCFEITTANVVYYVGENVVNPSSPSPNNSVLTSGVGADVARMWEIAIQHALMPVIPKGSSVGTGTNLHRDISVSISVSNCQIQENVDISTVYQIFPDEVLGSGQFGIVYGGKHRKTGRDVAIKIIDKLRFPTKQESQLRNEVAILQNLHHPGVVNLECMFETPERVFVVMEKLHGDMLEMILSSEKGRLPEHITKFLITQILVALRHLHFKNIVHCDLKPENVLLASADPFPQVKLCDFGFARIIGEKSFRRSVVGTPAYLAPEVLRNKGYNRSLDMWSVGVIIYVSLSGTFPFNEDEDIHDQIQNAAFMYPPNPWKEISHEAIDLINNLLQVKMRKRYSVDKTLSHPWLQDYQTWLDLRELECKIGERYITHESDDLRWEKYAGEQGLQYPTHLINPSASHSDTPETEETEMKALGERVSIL
Procedure, shortened: as §1

| SMILES | remaining binding at 1 µM [1] | remaining binding at 1 µM [2] |
| --- | --- | --- |
| Cc1ccc(C(=O)Nc2ccc(CN3CCN(C)CC3)c(C(F)(F)F)c2)cc1C#Cc1cnc2c(Nc3cnn(C)c3)cccn12 [Example 1, 4-methyl-3-((8-((1-methyl-1H-pyrazol-4-yl)amino)imidazo[1,2-a]pyridin-3-yl)ethynyl)-N-(4-((4-methylpiperazin-1-yl)methyl)-3-(trifluoromethyl)phenyl)benzamide] | 1% | 54% |
| Cc1cn(-c2cc(NC(=O)c3ccc(C)c(C#Cc4cnc5c(Nc6cnn(C)c6)cccn45)c3)cc(C(F)(F)F)c2)cn1 [Example 12, 4-methyl-N-(3-(4-methyl-1H-imidazol-1-yl)-5-(trifluoromethyl)phenyl)-3-((8-((1-methyl-1H-pyrazol-4-yl)amino)imidazo[1,2-a]pyridin-3-yl)ethynyl)benzamide] | 21% | 94% |
| Cc1ccc(NC(=O)C2(C(=O)Nc3ccc(F)cc3)CC2)cc1C#Cc1cnc2c(Nc3cnn(C(C)C)c3)cccn12 [Example 78] | 63% | 100% |
